Measured values as given in the NIST ThermoML archive (doi:10.1021/je600515j).
Numbers after ± are expanded uncertainties.

Legend:
[1] = relative permittivity at zero frequency (dimensionless); conditions: 101.33 kPa, Liquid, dielectric analyzer
[2] = relative permittivity at zero frequency (dimensionless); xn = mol fraction of the nth substance listed; conditions: 101 kPa, Liquid, dielectric analyzer

| SMILES | relative permittivity at zero frequency ([1]; 303.15 K) | relative permittivity at zero frequency ([1]; 308.15 K) | relative permittivity at zero frequency ([1]; 313.15 K) | relative permittivity at zero frequency ([1]; 318.15 K) | relative permittivity at zero frequency ([1]; 323.15 K) | relative permittivity at zero frequency ([1]; 328.15 K) | relative permittivity at zero frequency ([2]; 303.15 K, x1 = 0.2) | relative permittivity at zero frequency ([2]; 303.15 K, x1 = 0.4) | relative permittivity at zero frequency ([2]; 303.15 K, x1 = 0.6) | relative permittivity at zero frequency ([2]; 303.15 K, x1 = 0.8) | relative permittivity at zero frequency ([2]; 308.15 K, x1 = 0.2) | relative permittivity at zero frequency ([2]; 308.15 K, x1 = 0.4) | relative permittivity at zero frequency ([2]; 308.15 K, x1 = 0.6) | relative permittivity at zero frequency ([2]; 308.15 K, x1 = 0.8) | relative permittivity at zero frequency ([2]; 313.15 K, x1 = 0.2) | relative permittivity at zero frequency ([2]; 313.15 K, x1 = 0.4) | relative permittivity at zero frequency ([2]; 313.15 K, x1 = 0.6) | relative permittivity at zero frequency ([2]; 313.15 K, x1 = 0.8) | relative permittivity at zero frequency ([2]; 318.15 K, x1 = 0.2) | relative permittivity at zero frequency ([2]; 318.15 K, x1 = 0.4) | other results |
| --- | --- | --- | --- | --- | --- | --- | --- | --- | --- | --- | --- | --- | --- | --- | --- | --- | --- | --- | --- | --- | --- |
| CC(O)CO (stereo unspecified) [1,2-propanediol] | 27.87 ± 0.56 | 27.13 ± 0.54 | 26.43 ± 0.53 | 25.76 ± 0.52 | 25.08 ± 0.5 | 24.57 ± 0.49 |  |  |  |  |  |  |  |  |  |  |  |  |  |  |  |
| CC(C)(N)CO [2-amino-2-methylpropan-1-ol] | 20.59 ± 0.41 | 20.11 ± 0.4 | 19.69 ± 0.39 | 19.27 ± 0.39 | 18.88 ± 0.38 | 18.37 ± 0.37 |  |  |  |  |  |  |  |  |  |  |  |  |  |  |  |
| CC(C)(N)CO [2-amino-2-methylpropan-1-ol] + O |  |  |  |  |  |  | 48.24 ± 0.96 | 33.65 ± 0.67 | 26.63 ± 0.53 | 23.35 ± 0.47 | 47.33 ± 0.95 | 32.99 ± 0.66 | 26.17 ± 0.52 | 22.82 ± 0.46 | 46.43 ± 0.93 | 32.33 ± 0.65 | 25.65 ± 0.51 | 22.28 ± 0.45 | 45.46 ± 0.91 | 31.8 ± 0.64 | relative permittivity at zero frequency ([2]; 318.15 K, x1 = 0.6): 25.14 ± 0.5; relative permittivity at zero frequency ([2]; 318.15 K, x1 = 0.8): 21.87 ± 0.44; relative permittivity at zero frequency ([2]; 323.15 K, x1 = 0.2): 44.31 ± 0.89; relative permittivity at zero frequency ([2]; 323.15 K, x1 = 0.4): 31.15 ± 0.62; relative permittivity at zero frequency ([2]; 323.15 K, x1 = 0.6): 24.95 ± 0.5; relative permittivity at zero frequency ([2]; 323.15 K, x1 = 0.8): 21.42 ± 0.43; relative permittivity at zero frequency ([2]; 328.15 K, x1 = 0.2): 43.13 ± 0.86; relative permittivity at zero frequency ([2]; 328.15 K, x1 = 0.4): 30.11 ± 0.6; relative permittivity at zero frequency ([2]; 328.15 K, x1 = 0.6): 24.37 ± 0.49; relative permittivity at zero frequency ([2]; 328.15 K, x1 = 0.8): 21.03 ± 0.42 |
| CC(O)CNCC(C)O (stereo unspecified) [N-(2-hydroxypropyl)-2-hydroxy-1-propanamine] | 13.87 ± 0.28 | 13.75 ± 0.28 | 13.62 ± 0.27 | 13.49 ± 0.27 | 13.36 ± 0.27 | 13.26 ± 0.27 |  |  |  |  |  |  |  |  |  |  |  |  |  |  |  |
| CC(O)CNCC(C)O (stereo unspecified) [N-(2-hydroxypropyl)-2-hydroxy-1-propanamine] + O |  |  |  |  |  |  | 41.34 ± 0.83 | 24.52 ± 0.49 | 18.46 ± 0.37 | 16.65 ± 0.33 | 40.27 ± 0.81 | 24 ± 0.48 | 18.15 ± 0.36 | 16.45 ± 0.33 | 39.35 ± 0.79 | 23.48 ± 0.47 | 17.84 ± 0.36 | 16.26 ± 0.33 | 38.46 ± 0.77 | 23 ± 0.46 | relative permittivity at zero frequency ([2]; 318.15 K, x1 = 0.6): 17.53 ± 0.35; relative permittivity at zero frequency ([2]; 318.15 K, x1 = 0.8): 16.05 ± 0.32; relative permittivity at zero frequency ([2]; 323.15 K, x1 = 0.2): 37.74 ± 0.75; relative permittivity at zero frequency ([2]; 323.15 K, x1 = 0.4): 22.52 ± 0.45; relative permittivity at zero frequency ([2]; 323.15 K, x1 = 0.6): 17.2 ± 0.34; relative permittivity at zero frequency ([2]; 323.15 K, x1 = 0.8): 15.83 ± 0.32; relative permittivity at zero frequency ([2]; 328.15 K, x1 = 0.2): 37.16 ± 0.74; relative permittivity at zero frequency ([2]; 328.15 K, x1 = 0.4): 22.19 ± 0.44; relative permittivity at zero frequency ([2]; 328.15 K, x1 = 0.6): 16.97 ± 0.34; relative permittivity at zero frequency ([2]; 328.15 K, x1 = 0.8): 15.66 ± 0.31 |
| CN(CCO)CCO [N-methyldiethanolamine] | 21.84 ± 0.44 | 21.33 ± 0.43 | 20.83 ± 0.42 | 20.32 ± 0.41 | 19.79 ± 0.4 | 19.28 ± 0.39 |  |  |  |  |  |  |  |  |  |  |  |  |  |  |  |
| CN(CCO)CCO [N-methyldiethanolamine] + O |  |  |  |  |  |  | 48.77 ± 0.98 | 33.92 ± 0.68 | 26.68 ± 0.53 | 23.44 ± 0.47 | 47.54 ± 0.95 | 33.09 ± 0.66 | 26.03 ± 0.52 | 22.86 ± 0.46 | 46.36 ± 0.93 | 32.16 ± 0.64 | 25.4 ± 0.51 | 22.31 ± 0.45 | 45.14 ± 0.9 | 31.25 ± 0.63 | relative permittivity at zero frequency ([2]; 318.15 K, x1 = 0.6): 24.69 ± 0.49; relative permittivity at zero frequency ([2]; 318.15 K, x1 = 0.8): 21.77 ± 0.44; relative permittivity at zero frequency ([2]; 323.15 K, x1 = 0.2): 43.98 ± 0.88; relative permittivity at zero frequency ([2]; 323.15 K, x1 = 0.4): 30.37 ± 0.61; relative permittivity at zero frequency ([2]; 323.15 K, x1 = 0.6): 23.96 ± 0.48; relative permittivity at zero frequency ([2]; 323.15 K, x1 = 0.8): 21.15 ± 0.42; relative permittivity at zero frequency ([2]; 328.15 K, x1 = 0.2): 42.68 ± 0.85; relative permittivity at zero frequency ([2]; 328.15 K, x1 = 0.4): 29.41 ± 0.59; relative permittivity at zero frequency ([2]; 328.15 K, x1 = 0.6): 23.21 ± 0.46; relative permittivity at zero frequency ([2]; 328.15 K, x1 = 0.8): 20.56 ± 0.41 |
| OCCNCCO [diethanolamine] | 24.69 ± 0.49 | 24.3 ± 0.49 | 23.86 ± 0.48 | 23.28 ± 0.47 | 22.63 ± 0.45 | 22.13 ± 0.44 |  |  |  |  |  |  |  |  |  |  |  |  |  |  |  |
| OCCNCCO [diethanolamine] + O |  |  |  |  |  |  | 52.65 ± 1.1 | 39.11 ± 0.78 | 30.57 ± 0.61 | 26.95 ± 0.54 | 51.53 ± 1 | 38.06 ± 0.76 | 29.75 ± 0.6 | 26.41 ± 0.53 | 49.58 ± 0.99 | 36.95 ± 0.74 | 28.91 ± 0.58 | 25.86 ± 0.52 | 48.31 ± 0.97 | 35.81 ± 0.72 | relative permittivity at zero frequency ([2]; 318.15 K, x1 = 0.6): 28.07 ± 0.56; relative permittivity at zero frequency ([2]; 318.15 K, x1 = 0.8): 25.42 ± 0.51; relative permittivity at zero frequency ([2]; 323.15 K, x1 = 0.2): 46.78 ± 0.94; relative permittivity at zero frequency ([2]; 323.15 K, x1 = 0.4): 34.68 ± 0.69; relative permittivity at zero frequency ([2]; 323.15 K, x1 = 0.6): 27.36 ± 0.55; relative permittivity at zero frequency ([2]; 323.15 K, x1 = 0.8): 24.81 ± 0.5; relative permittivity at zero frequency ([2]; 328.15 K, x1 = 0.2): 45.68 ± 0.91; relative permittivity at zero frequency ([2]; 328.15 K, x1 = 0.4): 33.73 ± 0.67; relative permittivity at zero frequency ([2]; 328.15 K, x1 = 0.6): 26.7 ± 0.53; relative permittivity at zero frequency ([2]; 328.15 K, x1 = 0.8): 24.13 ± 0.48 |
| OCCN(CCO)CCO [triethanolamine] | 28.11 ± 0.56 | 27.41 ± 0.55 | 26.73 ± 0.53 | 26.07 ± 0.52 | 25.41 ± 0.51 | 24.8 ± 0.5 |  |  |  |  |  |  |  |  |  |  |  |  |  |  |  |
| OCCN(CCO)CCO [triethanolamine] + O |  |  |  |  |  |  | 49.25 ± 0.99 | 36.34 ± 0.73 | 31.48 ± 0.63 | 29.67 ± 0.59 | 48.14 ± 0.96 | 35.44 ± 0.71 | 30.66 ± 0.61 | 28.92 ± 0.58 | 47.23 ± 0.94 | 34.53 ± 0.69 | 29.85 ± 0.6 | 28.17 ± 0.56 | 46.33 ± 0.93 | 33.6 ± 0.67 | relative permittivity at zero frequency ([2]; 318.15 K, x1 = 0.6): 29.05 ± 0.58; relative permittivity at zero frequency ([2]; 318.15 K, x1 = 0.8): 27.43 ± 0.55; relative permittivity at zero frequency ([2]; 323.15 K, x1 = 0.2): 45.45 ± 0.91; relative permittivity at zero frequency ([2]; 323.15 K, x1 = 0.4): 32.73 ± 0.65; relative permittivity at zero frequency ([2]; 323.15 K, x1 = 0.6): 28.25 ± 0.57; relative permittivity at zero frequency ([2]; 323.15 K, x1 = 0.8): 26.69 ± 0.53; relative permittivity at zero frequency ([2]; 328.15 K, x1 = 0.2): 44.63 ± 0.89; relative permittivity at zero frequency ([2]; 328.15 K, x1 = 0.4): 31.93 ± 0.64; relative permittivity at zero frequency ([2]; 328.15 K, x1 = 0.6): 27.51 ± 0.55; relative permittivity at zero frequency ([2]; 328.15 K, x1 = 0.8): 26.04 ± 0.52 |
